Test results: ChEMBL document CHEMBL3097992, “Comparative molecular field analysis of fenoterol derivatives interacting with an agonist-stabilized form of the β₂-adrenergic receptor” (Bioorg Med Chem, 2014)

What was measured:
[1] = target: T1, Beta-2 adrenergic receptor (Homo sapiens, UniProt P07550); test: Displacement of [3H]-(R,R')-methoxyfenoterol from human beta2 adrenergic receptor expressed in HEK cells by liquid scintillation counting analysis; assay type: cell-based, HEK293
[2] = target: T1, Beta-2 adrenergic receptor; test: Displacement of [3H]-CGP-12177 from human beta2 adrenergic receptor expressed in HEK cells by liquid scintillation counting analysis; assay type: cell-based, HEK293
[3] = target: T1, Beta-2 adrenergic receptor; test: Agonist activity at human beta2 adrenergic receptor expressed in HEK293 cells assessed as stimulation of cAMP accumulation; assay type: functional, cell-based

T1 sequence (P07550 whole entry): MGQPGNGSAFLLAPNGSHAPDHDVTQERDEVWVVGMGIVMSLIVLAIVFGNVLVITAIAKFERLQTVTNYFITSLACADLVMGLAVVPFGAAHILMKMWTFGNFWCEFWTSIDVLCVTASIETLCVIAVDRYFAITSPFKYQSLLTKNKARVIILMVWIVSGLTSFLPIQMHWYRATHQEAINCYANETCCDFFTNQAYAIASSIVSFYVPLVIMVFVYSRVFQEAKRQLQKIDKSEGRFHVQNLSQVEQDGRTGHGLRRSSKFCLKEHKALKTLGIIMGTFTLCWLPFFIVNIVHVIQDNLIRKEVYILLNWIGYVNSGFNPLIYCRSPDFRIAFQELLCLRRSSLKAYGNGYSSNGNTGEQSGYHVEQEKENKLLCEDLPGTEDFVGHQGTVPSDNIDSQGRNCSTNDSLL

SMILES | Ki [1] [µM] | Ki [2] [µM] | EC50 [3] [µM]
CC[C@H](Cc1ccc(O)cc1)NC[C@H](O)c1cc(O)cc(O)c1 | 0.0391 | – | –
CC[C@@H](Cc1ccc(O)cc1)NC[C@H](O)c1cc(O)cc(O)c1 | 0.294 | – | –
CC[C@H](Cc1ccc(OC)cc1)NC[C@H](O)c1cc(O)cc(O)c1 | 0.0357 | 0.42 | 0.00163
CC[C@@H](Cc1ccc(OC)cc1)NC[C@H](O)c1cc(O)cc(O)c1 | 4.3 | 20.1 | 1.01
COc1ccc(C[C@H](NC[C@H](O)c2cc(O)cc(O)c2)C(C)C)cc1 | 29.2 | > 100 | 26.2
COc1ccc(C[C@@H](NC[C@H](O)c2cc(O)cc(O)c2)C(C)C)cc1 | 3.42 | > 100 | 6.1
